One compound from US5750516A, “Phosphoric diester” (Senju Pharmaceutical Co., Ltd., priority 1995, dated 1998) can be followed below.

Test [1] concerns lipid peroxidation in rat brain homogenate. Nature of the test: Autooxidation (lipid peroxidation) of the rat brain homogenate, MDA by TBA method. It counts as biochemical, Rats of Wistar strain. The settings on record: for Inhibition (%) of lipid peroxidation in rat brain homogenate: 37° C., 30 minutes, pH 7.4. The method, then: Rats of Wistar strain (male, 11 weeks old) were used. The animal was decapitated and the brain was enucleated and homogenized in 4 ml/gram of 50 mM phosphate-buffered saline (pH 7.4). The homogenate was centrifuged (1000 g, 10 min.) and the supernatant was harvested. The test solution was set to 10^-7 -10^-4 M (dissolved at a final ethanol concentration of 1%). To 100 μl of the test solution was added 200 μl of the brain homogenate as well as 700 μl of phosphate-buffered saline and the mixture was incubated at 37° C. for 30 minutes for lipid peroxidation. The reaction was stopped with 200 μl of 35% perchloric acid and centrifuged (1300 g, 10 min.) and the MDA (malondialdehyde) value of the supernatant was determined by the TBA (thiobarbituric acid) method.

The nature of test [2]: DPPH (1,1-Diphenyl-2-picrylhydrazyl) radical scavenging action. The settings on record: for Inhibition (%) (scavenging effect on DPPH radical): 20 minutes, 517 nm. It counts as biochemical. The procedure:
To 2.7 ml of 0.11 mM-DPPH/ethanol was added 300 μl of the test solution and the mixture was stirred and allowed to stand for 20 minutes. Then, the absorbance was measured at 517 nm. The radical scavenging effect (%) of each test solution was calculated by means of the following equation. [formula]

In the case of `Cc1c(C)c2c(c(C)c1OP(=O)([O-])O[C@@H](CO)[C@H]1OC(=O)C(O)=C1O)CCC(C)(CCCC(C)CCCC(C)CCCC(C)C)O2.[K+]` (stereo partly drawn) [the present compound, L-ascorbic acid 5-[3,4-dihydro-2,5,7,8-tetramethyl-2-(4,8,12-trimethyltridecyl)-2H-1-benzopyran-6-yl hydrogen phosphate] potassium], the “Inhibition (%) of lipid peroxidation in rat brain homogenate” value worked out at 98.5% in test [1] (10^-4 M), 98.7% in test [1] (10^-5 M), 93.3% in test [1] (10^-6 M) and 24.7% in test [1] (10^-7 M). Besides, the “inhibition of autooxidation of the rat brain homogenate (in words)” value in test [1] (10^-7 -10^-4 M) is “inhibits autooxidation of the rat brain homogenate to a remarkable extent”. Moreover, the “Inhibition (%) (scavenging effect on DPPH radical)” value was found to be 71.7% in test [2] (5 × 10^-5 M), 96.7% in test [2] (10^-3 M), 97.3% in test [2] (10^-4 M) and 13.1% in test [2] (10^-5 M). Besides, in test [2] (10^-5 to 10^-3 M), the “scavenging of DPPH radicals (in words)” value was “scavenges DPPH radicals to a remarkable extent”.
